Data set [1] is described as follows: Cellular toxicity by WST-1 staining. The class given is cell-based. The note with it: human, CBMCs, Table 4, day 7, read-out: CC50 (μM) WST-1 CBMC. The method, then:
(§1) The cellular toxicity of the compounds were assessed on various cells using [^3H]-thymidine uptake. Various cells, including Molt-4, HT1080, DU-145, HepG-2 and HSF, were plated at a concentration of 1-2×10^3 cells per well (96 well plates). After a 24 hr incubation period, 10-fold serial diluted compounds (b 10^−4 M to 10^−10 M) were added to the culture medium and the cells were further incubated for 72 hrs. [^3H]-thymidine was added during the final 18 hr incubation period. After incubation with the [^3H]-thymidine, the cells were washed once with PBS, treated with trypsin if the cells were adherent, and then resuspended in water (hypotonic lysing of cells). The cellular extract was applied directly to a Tomtec Harvester 96. Using this instrument the extracted DNA is adsorbed onto filters, washed and the incorporated [^3H]-thymidine is then counted. The 50% cytotoxic concentration (CC50) was determined by comparing the radioactive counts per minute of the samples in the presence of the compounds against the control. The cellular toxicity of the compounds was also tested by WST-1 staining through assessing proliferation of MT-2, H9, Jurkat, U937, and CBMCs. The established cell lines were cultured in RPMI medium in 96-well plates at a density of 5×10^4 cells/well while CBMCs were plated at a concentration of 0.5×10^6/well. A 10-fold serial diluted (10^−4-10^−7 M) compound was added at day zero. At day 4, the cells were passaged by changing half medium containing appropriately diluted compound. The cell activities were assessed at day 7 using the WST-1 reagent (Boehringer Mannheim) following the protocol provided by the supplier.
In the WST-1 staining experiments, cell lines were cultured in RPMI medium in 96-well plates at a density of 5×10^4 cells/well. CBMCs were plated at a concentration of 0.5×10^6/well. Compounds (10^−4-10^−7 M) were added at day zero. Cell viability was assessed on day 7 using the WST-1 reagent (Boehringer Mannheim) following the protocol provided by the supplier.

Another data set has as its system PBMCs. The data set can be described thus: Cellular toxicity by [3H]-thymidine uptake. The format is cell-based, human. The note with it: Table 4; 72 hrs. Here is the method: (§2) Cellular toxicity was assessed by [^3H]thymidine uptake (de Muys et al. 1999) and WST-1 staining. In the [^3H]thymidine uptake experiments, Molt-4, HT1080, DU-145, HepG2 and HSF, were plated at a concentration of 1-2×10^3 cells per well (96 well plates). PHA-stimulated PBMCs were cultured at a concentration of 4×10^4 cells per well. Following a 24 hr pre-incubation period, test compounds (10^−4 M to 10^−10 M) were added and the cells were incubated for an additional 72 hrs. [^3H]thymidine was added during the final 18 hr incubation period. The cells were then washed once with PBS, treated with trypsin if the cells were adherent, and resuspended in water (hypotonic lysing of cells). The cellular extract was applied directly to a Tomtec Harvester 96. The 50% cytotoxic concentration (CC50) was determined by comparing the radioactive counts per minute obtained from drug-tested samples to those obtained from the control (untreated) cells.

Data set [2] in a line: Cellular toxicity by [3H]-thymidine uptake. Particulars: human. The format is cell-based. The method, then:
as §1, §2

Data set [3] can be described thus: Body weight gaining effect in mice. Particulars: intraperitoneally, mice (CDI, adult, male), 50 mg/kg/day for 5 days. The class given is in vivo.
The nature of data set [4]: Preliminary pharmacokinetic study in male adult rats. The format is in vivo. The note with it: rat; for half-life / AUC / Cmax: male, plasma; for AUC: read-out: AUC; for Cmax: read-out: Cmax. The method, then: The bioavailability of the compounds were evaluated in male adult rats dosed intravenously through the tail vein (5 mg/kg) and orally (20 mg/kg). The plasma samples were collected at 2, 5, 15, 30, 60, 90, 120 and 240 minutes after intravenous dosing and 5, 15, 30, 60, 90, 120, 240 and 360 minutes after oral dosing.
Blood samples (1 ml) were collected from the rat tails into a vacutainer containing EDTA (3 ml) for both iv and po administrations. Plasma samples were prepared by centrifugation at 2000 ×g for 15 minutes at 4° C.
Plasma samples (diluted to 1 ml with water) were loaded onto the Abselut Nexus sorbent (# 1210-3100 ) and drawn through under low vacuum (approximately 5′′ Hg). One milliliter of deionized water was added to the sorbent and drawn through under vacuum. The extraction column was dried for 1 minute using a high vacuum (>10′′ Hg). One milliliter of methanol was added to the Abselut Nexus column and the eluent was collected at 1-2 ml/min. The eluent was evaporated to dryness using a Speed Vac, and the samples were reconstituted in 120 μl H2O; 100 μl was used for injection.

Read-outs that look alike come from different tables or passages of the source.

As usually defined, the half-life is the time needed for the level to fall by half in the phase considered. Usually AUC stands for the area under the concentration-time curve, a measure of exposure. By Cmax is commonly meant the highest concentration seen after dosing. On to `Nc1nc(NC2CCC2)c2ncn([C@H]3CO[C@@H](CO)O3)c2n1` [Cmpd B (−), (−)-(2R,4R)-2-hydroxymethyl-4-(2′-amino-6′-cyclobutylamino-purine-9′-yl)-1,3-dioxolane], for which, in data set [1], the CC50 at 7 days is more than 100 µM. For the same compound, in the data set on PBMCs, the “CC50 (μM) [^3H-]TTP incorporation in: PBMC” value was 80/90. Besides, the CC50 at 72 h is 200 µM in data set [2] (DU-145 cells, Table 4, read-out: CC50 (μM) [^3H-]TTP incorporation in: U-145); more than 250 µM in data set [2] (HT1080 cells, Table 4, read-out: CC50 (μM) [^3H-]TTP incorporation in: HT1080); more than 250 µM in data set [2] (HepG2 cells, Table 4, read-out: CC50 (μM) [^3H-]TTP incorporation in: HepG2); more than 250 µM in data set [2] (Molt-4 cells, Table 4, read-out: CC50 (μM) [^3H-]TTP incorporation in: Molt-4). Also, the “Mice (50 mg/kg/d): body weight gaining effect” value in data set [3] is given as “No”. Further, the half-life in data set [4] (iv 5 mg/kg) is 18.6 min; in data set [4] (oral 20 mg/kg), 72 min. The results for the AUC in data set [4] (iv 5 mg/kg) and in data set [4] (oral 20 mg/kg) were 5.6 µg·h/mL and 3.08 µg·h/mL, respectively. The peak concentration (Cmax) was found to be 13.3 µg/mL in data set [4] (iv 5 mg/kg) and 1.12 µg/mL in data set [4] (oral 20 mg/kg). Also, the “Oral BA (%)” value in data set [4] (oral 20 mg/kg) was determined as 13.75%.

(Values after patent US20010049372A1, “Antiviral nucleoside analogues” (BioChem Pharma Inc., priority 1998, published 2001).)
